Results as given in ChEMBL document CHEMBL4308834, “Novel Allosteric Activators for Ferroptosis Regulator Glutathione Peroxidase 4” (J Med Chem, 2018).
Active and inactive are the calls of the source. The rule behind the calls is not given here.

How the values were obtained:
Homo sapiens [1] = species: Homo sapiens; assay: (§1) Activation of recombinant His-tagged human cytosolic GPX4 U46C mutant expressed in Escherichia coli M15 assessed as increase in oxidized glutathione-mediated oxidation of NADPH to NADP+ at 0.4 to 250 uM using tert-butyl hydroperoxide as substrate preincubated for 5 mins followed by substrate addition measured for 6 mins by glutathione reductase enzyme coupled fluorescence assay relative to control
Homo sapiens [2] = species: Homo sapiens; assay: as §1, with “NADP+” for “NADP+ at 0.4 to 250 uM”, “assay” for “assay relative to control”
Homo sapiens [3] = species: Homo sapiens; assay: as §1, with “200” for “0.4 to 250”
Homo sapiens [4] = species: Homo sapiens; assay: (§2) Activation of recombinant human GPX4 D23A/U46C double mutant expressed in Escherichia coli M15 assessed as increase in oxidized glutathione-mediated oxidation of NADPH to NADP+ using tert-butyl hydroperoxide as substrate preincubated for 5 mins followed by substrate addition measured for 6 mins by glutathione reductase enzyme coupled fluorescence assay relative to GPX4 U46C mutant control
[5] = Binding affinity to recombinant His-tagged human cytosolic GPX4 U46C mutant expressed in Escherichia coli M15 by SPR analysis
[6] = Iron chelating activity assessed as compound-Fe2+ complex formation after 10 mins by Prussian blue assay
[7] = Antioxidant activity assessed as DPPH radical scavenging activity at 500 uM; format: functional
[8] = target: Phospholipid hydroperoxide glutathione peroxidase GPX4 (Mus musculus) (UniProt O70325); assay: Activation of GPX4 in MEF assessed as increase in […] protection against CHOOH-induced cell death at 200 uM; format: cell-based
Homo sapiens [9] = species: Homo sapiens; assay: as §2, with “D21A/U46C” for “D23A/U46C”
[10] = Zinc chelating activity in presence of ZnSO4 after 10 mins by crystal violet staining based assay
[11] = Binding affinity to recombinant human GPX4 D21A/D23A double mutant expressed in Escherichia coli M15 by SPR analysis
[12] = target: Phospholipid hydroperoxide glutathione peroxidase GPX4 (Mus musculus) (UniProt O70325); assay: Activation of GPX4 in MEF assessed as increase in oxidized glutathione-mediated oxidation of NADPH to NADP+ using tert-butyl hydroperoxide as substrate preincubated for 5 mins followed by substrate addition measured for 6 mins by glutathione reductase enzyme coupled fluorescence assay; format: cell-based
Homo sapiens [13] = species: Homo sapiens; assay: as §2, with “D21A/D23A/U46C” for “D23A/U46C double”

Phospholipid hydroperoxide glutathione peroxidase GPX4 (Mus musculus), sequence (O70325 whole entry): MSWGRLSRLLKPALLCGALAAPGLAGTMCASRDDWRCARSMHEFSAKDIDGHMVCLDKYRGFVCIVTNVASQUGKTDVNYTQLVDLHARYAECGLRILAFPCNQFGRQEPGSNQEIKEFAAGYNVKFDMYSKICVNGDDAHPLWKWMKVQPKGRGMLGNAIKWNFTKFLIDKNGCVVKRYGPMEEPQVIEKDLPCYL

Emax (Homo sapiens [1]) [%] | EC150 (Homo sapiens [2]) [µM] | Activity (Homo sapiens [3]) [%] | Structure (SMILES) | other results
200 | 285 | 115 | CN1CCN(C(S)=Nc2ccc(S(N)(=O)=O)cc2)CC1 | Activity (Homo sapiens [2]): Dose-dependent effect
– | – | < 115 | CCNS(=O)(=O)c1ccc(NC(=S)NC2CCCC2)cc1 | –
– | – | < 115 | O=S(=O)(NCCO)c1ccc(NC(=S)NC2CCCC2)cc1 | –
– | – | < 115 | NCCNS(=O)(=O)c1ccc(NC(=S)NC2CCCCC2)cc1 | –
209 | 121 | 167 | CNCCNS(=O)(=O)c1ccc(NC(=S)NC2CCCC2)cc1 | –
225 | 147 | 167 | NS(=O)(=O)c1ccc(NC(=S)NCCO)cc1 | Activity (Homo sapiens [2]): Dose-dependent effect
– | – | < 115 | NCCNS(=O)(=O)c1ccc(NC(=S)NC2CCCCCC2)cc1 | –
279 | 20 | 219 | NCCNS(=O)(=O)c1ccc(NC(=S)NC2CCCC2)cc1 | EC150 (Homo sapiens [4]): 235 µM; Kd [5]: 19 µM; Activity [6]: inactive; Activity [7]: inactive; Activity [8]: Active; EC150 (Homo sapiens [9]): 367 µM; Activity [10]: inactive; Kd [11]: 374 µM; Activity [12]: Dose-dependent effect; EC150 [12]: 61 µM; EC150 (Homo sapiens [13]): 382 µM
– | – | < 115 | CCNC(=S)Nc1ccc(S(=O)(=O)NCCN)cc1 | –
– | – | < 115 | NCCNS(=O)(=O)c1ccc(NC(=S)NCc2ccc(Cl)cc2)cc1 | –
– | – | < 115 | NCCCCNS(=O)(=O)c1ccc(NC(=S)NC2CCCC2)cc1 | –
300 | 255 | 129 | NS(=O)(=O)c1ccc(NC(S)=NCc2ccccc2)cc1 | Activity (Homo sapiens [2]): Dose-dependent effect
– | – | < 115 | O=S(=O)(NCCO)c1ccc(NC(=S)NCc2ccc(Cl)cc2)cc1 | –
437 | 29 | 318 | CC(C)(C)NC(=S)Nc1ccc(S(=O)(=O)NCCN)cc1 | –
214 | 301 | 121 | NCCCNS(=O)(=O)c1ccc(NC(=S)NC2CCCC2)cc1 | –
